Results: ChEMBL document CHEMBL1201862, “PubChem BioAssay data set” (2004)
“And” between values parts separate entries of the source, which are not always exact repeats. Equal entries are not always repeated.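 The compound was tested at five concentrations on cells cultured in 96-well plates, with a 48-hour exposure period. At the GI50, growth is halved.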 The source made the active and inactive calls. Rule as the data show it: active = GI50 up to about 1.1 µM and inactive = higher. Where a SMILES comes first, the peptide text is derived from it. The star is where a group is joined. Boc = CC(C)(C)OC(=O)*; OSu = O=C1CCC(=O)N1O*

How the values were obtained:
Test in all cases: inhibition of tumour cell growth, NCI panel, 48 h
DLD-1 = system: DLD-1
DMS-114 = system: DMS-114
KM-20L2 = system: KM-20L2
LXFL 529 = system: LXFL 529
M19-MEL = system: M19-MEL
SNB-78 = system: SNB-78
BT-549 = system: BT-549
Hs-578T = system: Hs-578T

SMILES | GI50 (DLD-1) | GI50 (DMS-114) | GI50 (KM-20L2) | GI50 (LXFL 529) | GI50 (M19-MEL) | GI50 (SNB-78) | GI50 (BT-549) | GI50 (Hs-578T)
CCOC(=O)NC(=O)c1cn(CCCOC(=O)NCCCCCCNC(=O)OCCCn2cc(C(=O)NC(=O)OCC)c(=O)[nH]c2=O)c(=O)[nH]c1=O | 31.3 µM (inactive) | 15.3 µM (inactive) | 50 µM (inactive) | 57.4 µM (inactive) | 31.9 µM (inactive) | 36.7 µM (inactive) |  | 
CN1CCc2cc(N)cc3c2C1Cc1ccc(O)c(O)c1-3 (stereo not given) |  |  |  |  |  |  | 58.2 µM (inactive) | 53.5 µM (inactive)
COC(=O)[C@H]1C=C[C@@H](C)n2c(=O)c3ccccc3c(=O)n21 | > 100 µM (inactive) | > 100 µM (inactive) | > 100 µM (inactive) | > 100 µM (inactive) | > 100 µM (inactive) | > 100 µM (inactive) |  | 
Cn1c(=O)c(C(=O)NC(=O)NCCCCCOC(=O)CCCCCCCCCCC(=O)OCCCCCNC(=O)NC(=O)c2cn(Cc3ccccc3)c(=O)n(C)c2=O)cn(Cc2ccccc2)c1=O | > 100 µM (inactive) | > 100 µM (inactive) | > 100 µM (inactive) | > 100 µM (inactive) | > 100 µM (inactive) | > 100 µM (inactive) |  | 
Nc1ccccc1OCc1cc(=O)c(OCc2ccccc2)co1 |  |  |  |  |  |  | 33.5 µM (inactive) | 
COc1cc(/C=c2/c3ccccc3n3c2cc(-c2ccccc2)[n+]3C)cc(OC)c1OC |  |  |  |  |  |  | 3.78 µM (inactive) | 
Nc1ncnc2c1ncn2C1OC(CSCc2ccc(Cl)cc2)C(O)C1O (stereo not given) | 14.6 µM (inactive) | 21.9 µM (inactive) | 9.55 µM (inactive) | 17.2 µM (inactive) | 33.7 µM (inactive) | 68.9 µM (inactive) |  | 
CC(=N/NC(N)=S)/C(C)=N/NC(N)=S |  |  |  |  |  |  | > 100 µM (inactive) | > 100 µM (inactive)
O=CC12CCCN1CCC2 |  |  |  |  |  |  | > 100 µM (inactive) | 
COc1ccc(C2=NNC(=O)c3ccccc3N2c2nc(-c3cccs3)nc3cc(OC)c(OC)cc23)cc1 |  |  |  |  |  |  | 2.62 µM (inactive) | 3.85 µM (inactive)
O=C(NCCC1CN(C(=O)OCc2ccccc2)c2ccccc21)OCc1ccccc1 (stereo not given) |  |  |  |  |  |  | > 100 µM (inactive) | > 100 µM (inactive)
O=C(/C=C/c1ccc(Cl)c(Cl)c1)CCN1CCN(CCC(=O)/C=C/c2ccc(Cl)c(Cl)c2)CC1 |  |  |  |  |  |  | 24.1 µM (inactive) | 
BrCC[P+](c1ccccc1)(c1ccccc1)c1ccccc1 |  |  |  |  |  |  | 14.9 µM (inactive) | 20.4 µM (inactive)
C=C(Cl)C(Cl)(CBr)CCC(Br)C(C)(C)Br (stereo not given) |  |  |  |  |  |  | 7.66 µM (inactive) | 2.96 µM (inactive)
O=C1c2ccccc2C(=O)N1C/C=N/NS(=O)(=O)c1cccc([N+](=O)[O-])c1 | > 100 µM (inactive) | > 100 µM (inactive) | > 100 µM (inactive) | > 100 µM (inactive) | > 100 µM (inactive) |  |  | 
Fc1cc(-c2cc(-c3ccc4c(c3)OCO4)n[nH]2)c(Cl)cc1Cl |  |  |  |  |  |  | 6.59 µM (inactive) | 3.99 µM (inactive)

SMILES | GI50 (DLD-1) | GI50 (DMS-114) | GI50 (KM-20L2) | GI50 (LXFL 529) | GI50 (M19-MEL) | GI50 (SNB-78) | GI50 (BT-549) | GI50 (Hs-578T)
Cc1nn(C(=O)c2ccc(Cl)cc2)c2c1C(c1ccccc1[N+](=O)[O-])SC(=N)N2 (stereo not given) |  |  |  |  |  |  | > 10 µM (inactive) | > 10 µM (inactive)
Cc1cccc(NC(=S)N/N=C(/c2ccccc2)c2ccccn2)c1 |  |  |  |  |  |  | 2.5 µM (inactive) | 9.02 µM (inactive)
CN1CCN(c2n[nH]c(=O)c3c2nnn3Cc2ccccc2)CC1 |  |  |  |  |  |  | 41.5 µM (inactive) | 
CN(C)CC/C(=N\Nc1ccc(Cl)cc1Cl)c1ccccc1 | 10.3 µM (inactive) | 13.8 µM (inactive) | 14.3 µM (inactive) | 13.2 µM (inactive) | 17.2 µM (inactive) | 13.5 µM (inactive) |  | 
Clc1ccc(C2=NCON=C2c2ccc(Cl)cc2)cc1 |  |  |  |  |  |  | 19.5 µM (inactive) | 13.8 µM (inactive)
CN(C)Cc1cc(/N=N/c2ccc(Cl)cc2)cc(CN(C)C)c1O |  |  |  |  |  |  | 11 µM (inactive) | 11.3 µM (inactive)
CCCC(CCC(=O)O)(CCC(=O)O)[N+](=O)[O-] |  |  |  |  |  |  | > 100 µM (inactive) | > 100 µM (inactive)
CNc1ncccc1Nc1cc(=O)n2c3cccnc3n(C)c2c1 |  |  |  |  |  |  | > 100 µM (inactive) | 
C=CCOC(=O)C1C2OC3(C(C(=O)OC)=C2C(=O)OC)c2ccccc2CCC13 (stereo not given) |  |  |  |  |  |  | > 10 µM (inactive) | > 10 µM (inactive)
CC(NC(=O)C(NC(=O)OC(C)(C)C)C(C)C)C(=O)NCC(=O)ON1C(=O)CCC1=O (stereo not drawn) (Boc-Val-Ala-Gly-OSu; configuration not given here) |  |  |  |  |  |  | > 100 µM (inactive) | > 10 µM (inactive)
CCCCCCCCCCCC(=O)OC[C@@H](C[As](=O)(O)O)OC(=O)CCCCCCCCCCC | 18 µM (inactive) | 2.12 µM (inactive) | 13.4 µM (inactive) | 5.45 µM (inactive) | 6.05 µM (inactive) | 3.39 µM (inactive) | 3.48 µM (inactive) | 3.93 µM (inactive)
C=C(C)[C@@H]1CC[C@]2(C)CC[C@]3(C)[C@H](CC[C@@H]4[C@@]5(C)CC[C@H](OC(=O)c6ccccc6)C(C)(C)[C@@H]5CC[C@]43C)[C@@H]12 |  |  |  |  |  |  | > 100 µM (inactive) | > 100 µM (inactive)
O=[N+]([O-])/C(Cl)=C(\NCCO)C(Cl)=C(Cl)Cl |  |  |  |  |  |  | > 79.8 µM (inactive) | > 65.5 µM (inactive)
CNc1nc(=O)c(C#N)c(-c2ccc(C)cc2)s1 |  |  |  |  |  |  | > 100 µM (inactive) | 
COc1ccc(/C=C2/N/C(=N\N=C/C(O)C(O)C(O)C(O)CO)NC2=O)cc1 (stereo not given) |  |  |  |  |  |  | 82.4 µM (inactive) and 65.6 µM (inactive) | > 100 µM (inactive)
[N-]=[N+]=Nc1ncnc2c1sc(=S)n2-c1ccccc1 | > 100 µM (inactive) | > 100 µM (inactive) | > 100 µM (inactive) | > 100 µM (inactive) | > 100 µM (inactive) | > 100 µM (inactive) |  | 
